# Measured values taken from ChEMBL document CHEMBL1201862, “PubChem BioAssay data set” (2004).
#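 Compound exposure: 48 hours, 5 concentrations, 96-well plates. The concentration for 50% growth inhibition is given as GI50.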 Activity calls are given as the source filed them. Rule as the data show it: active = GI50 up to about 1.1 µM and inactive = higher.
# How the values were obtained:
# Experiment in all cases: DTP human tumour cell line panel, 48 h
# HCC 2998 = tested on: HCC 2998
# M14 = tested on: M14
# HL-60 = tested on: HL-60
# SF-268 = tested on: SF-268
# HOP-92 = tested on: HOP-92
# NCI-H522 = tested on: NCI-H522
# HT-29 = tested on: HT-29
# SF-539 = tested on: SF-539
# UO-31 = tested on: UO-31
# U-251 = tested on: U-251
# NCI-H460 = tested on: NCI-H460
# SNB-75 = tested on: SNB-75
# SK-MEL-5 = tested on: SK-MEL-5
# A549 = tested on: A549
# HOP-62 = tested on: HOP-62
# CAKI-1 = tested on: CAKI-1
# SK-MEL-2 = tested on: SK-MEL-2
SMILES,GI50 (HCC 2998),GI50 (M14),GI50 (HL-60),GI50 (SF-268),GI50 (HOP-92),GI50 (NCI-H522),GI50 (HT-29),GI50 (SF-539),GI50 (UO-31),GI50 (U-251),GI50 (NCI-H460),GI50 (SNB-75),GI50 (SK-MEL-5),GI50 (A549),GI50 (HOP-62),GI50 (CAKI-1),GI50 (SK-MEL-2)
O=c1[nH]c(=O)n(C2OC(CO)C(N(O)Cc3ccc(F)cc3)C2O)cc1Br (stereo unspecified),> 100 µM (inactive),> 100 µM (inactive),> 100 µM (inactive),> 100 µM (inactive),> 100 µM (inactive),13.2 µM (inactive),> 100 µM (inactive),> 100 µM (inactive),> 100 µM (inactive),> 100 µM (inactive),> 100 µM (inactive),> 100 µM (inactive),> 100 µM (inactive),> 100 µM (inactive),,,
c1cnc2c3[nH]cc4[nH]c5ccccc5c4c-3nc2c1,52.4 µM (inactive),> 100 µM (inactive),76 µM (inactive),84.5 µM (inactive),16.9 µM (inactive),> 100 µM (inactive),29.8 µM (inactive),93.3 µM (inactive),42.4 µM (inactive),75.3 µM (inactive),35.6 µM (inactive),51.9 µM (inactive),> 100 µM (inactive),> 100 µM (inactive),40.4 µM (inactive),64.1 µM (inactive),30.7 µM (inactive)
COC(=O)CC(=O)OC1C[C@@H]2CCC3C(C)(C)CCC[C@]3(C)C23CC[C@@]1(C)C3 (stereo partly specified),19.8 µM (inactive),18 µM (inactive),> 100 µM (inactive),18.5 µM (inactive),18 µM (inactive),12.9 µM (inactive),19.2 µM (inactive),19.6 µM (inactive),19.4 µM (inactive),17.4 µM (inactive),19.8 µM (inactive),27.9 µM (inactive),17.6 µM (inactive),24.5 µM (inactive),19.3 µM (inactive),16.9 µM (inactive),
O=C1c2ccccc2C(=O)N1C/C=N/NS(=O)(=O)c1ccc(Br)cc1,> 100 µM (inactive),> 100 µM (inactive),> 100 µM (inactive),> 100 µM (inactive),11 µM (inactive),> 100 µM (inactive),> 100 µM (inactive),> 100 µM (inactive),> 100 µM (inactive),> 100 µM (inactive),> 100 µM (inactive),> 100 µM (inactive),> 100 µM (inactive),> 100 µM (inactive),> 100 µM (inactive),74.1 µM (inactive),> 100 µM (inactive)
Fc1cccc(C2SCc3nc4ccccc4n32)c1 (stereo unspecified),55.7 µM (inactive),,11 µM (inactive),75.3 µM (inactive),12.5 µM (inactive),20.2 µM (inactive),68.7 µM (inactive),> 100 µM (inactive),33.8 µM (inactive),,39.6 µM (inactive),36.4 µM (inactive),12.7 µM (inactive),43.1 µM (inactive),,25.7 µM (inactive),42.3 µM (inactive)
Cc1ccc2sc3cc(=O)cc(C)c-3nc2c1,50.4 µM (inactive),> 100 µM (inactive),13.8 µM (inactive),47.2 µM (inactive),> 100 µM (inactive),20.3 µM (inactive),> 100 µM (inactive),37.9 µM (inactive),26.1 µM (inactive),32.7 µM (inactive),> 100 µM (inactive),> 100 µM (inactive),16.6 µM (inactive),36.7 µM (inactive),65 µM (inactive),28.5 µM (inactive),> 100 µM (inactive)
Cc1cc(Cl)ccc1C1OC(=O)c2c1ccc1ccccc21 (stereo unspecified),> 100 µM (inactive),> 100 µM (inactive),> 100 µM (inactive),> 100 µM (inactive),> 100 µM (inactive),> 100 µM (inactive),> 100 µM (inactive),> 100 µM (inactive),> 100 µM (inactive),> 100 µM (inactive),> 100 µM (inactive),29.9 µM (inactive),58.2 µM (inactive),> 100 µM (inactive),> 100 µM (inactive),> 100 µM (inactive),> 100 µM (inactive)
C=CSCCC(N)C(=O)O (stereo unspecified),> 100 µM (inactive),> 100 µM (inactive),> 100 µM (inactive),> 100 µM (inactive),> 100 µM (inactive),> 100 µM (inactive),> 100 µM (inactive),> 100 µM (inactive),> 100 µM (inactive),> 100 µM (inactive),> 100 µM (inactive),> 100 µM (inactive),> 100 µM (inactive),> 100 µM (inactive),> 100 µM (inactive),> 100 µM (inactive),
Cc1cccc(-c2nc3c(C(=O)NCCN(C)C)cccc3[nH]2)c1,1 µM (active),1.63 µM (inactive),2.29 µM (inactive),1.58 µM (inactive),1.28 µM (inactive),,0.52 µM (active),0.724 µM (active),2.06 µM (inactive),1.49 µM (inactive),0.369 µM (active),2.2 µM (inactive),1.65 µM (inactive),1.1 µM (active),1.72 µM (inactive),2.23 µM (inactive),1.86 µM (inactive)
CN1NC(c2ccccc2)=C(C#N)C(=O)CC1c1ccccc1Cl (stereo unspecified),> 100 µM (inactive),> 100 µM (inactive),> 100 µM (inactive),> 100 µM (inactive),> 100 µM (inactive),65.2 µM (inactive),> 100 µM (inactive),,,> 100 µM (inactive),> 100 µM (inactive),86.3 µM (inactive),69.8 µM (inactive),> 100 µM (inactive),25.3 µM (inactive),> 100 µM (inactive),> 100 µM (inactive)
CS(=O)(=O)OCCCOS(C)(=O)=O,> 100 µM (inactive),> 100 µM (inactive),> 100 µM (inactive),> 100 µM (inactive),> 100 µM (inactive),> 100 µM (inactive),> 100 µM (inactive),> 100 µM (inactive),> 100 µM (inactive),> 100 µM (inactive),> 100 µM (inactive),> 100 µM (inactive),> 100 µM (inactive),> 100 µM (inactive),> 100 µM (inactive),,> 100 µM (inactive)
CC(=O)Nc1ccc(S(=O)(=O)N/N=C/c2cc(I)cc([N+](=O)[O-])c2O)cc1,> 100 µM (inactive),46.6 µM (inactive),31.5 µM (inactive),32.9 µM (inactive),,,> 100 µM (inactive),,33.3 µM (inactive),49.4 µM (inactive),> 100 µM (inactive),25.6 µM (inactive),44 µM (inactive),> 100 µM (inactive),,81.5 µM (inactive),41.9 µM (inactive)
CC1=CC(=O)C(=O)C2=C1OC1(C2)C(C)CCC2C3(C)CCC(O)C(C)(C)C3CCC21C (stereo unspecified),19 µM (inactive),18.8 µM (inactive),2.22 µM (inactive),26.4 µM (inactive),17.3 µM (inactive),15.2 µM (inactive),20.6 µM (inactive),> 100 µM (inactive),18.4 µM (inactive),14.6 µM (inactive),17.5 µM (inactive),48.4 µM (inactive),18 µM (inactive),33.3 µM (inactive),19.2 µM (inactive),17.5 µM (inactive),
O=[N+]([O-])c1ccc(-c2noc(-c3ccc(Cl)cc3)c2C2=NCCN2)cc1,> 100 µM (inactive),> 100 µM (inactive),> 100 µM (inactive),> 100 µM (inactive),,> 100 µM (inactive),> 100 µM (inactive),> 100 µM (inactive),> 100 µM (inactive),> 100 µM (inactive),> 100 µM (inactive),,> 100 µM (inactive),> 100 µM (inactive),> 100 µM (inactive),> 100 µM (inactive),> 100 µM (inactive)
Cc1ccc(S(=O)(=O)N/N=C/C(C)C)cc1,> 100 µM (inactive),> 100 µM (inactive),> 100 µM (inactive),> 100 µM (inactive),24.9 µM (inactive),,> 100 µM (inactive),> 100 µM (inactive),> 100 µM (inactive),> 100 µM (inactive),> 100 µM (inactive),70.6 µM (inactive),> 100 µM (inactive),> 100 µM (inactive),> 100 µM (inactive),> 100 µM (inactive),> 100 µM (inactive)
CCOC(=O)Cn1c(=O)[nH]c(=O)c2[nH]cnc21,> 100 µM (inactive),> 100 µM (inactive),> 100 µM (inactive),> 100 µM (inactive),,> 100 µM (inactive),> 100 µM (inactive),> 100 µM (inactive),> 100 µM (inactive),> 100 µM (inactive),> 100 µM (inactive),> 100 µM (inactive),> 100 µM (inactive),> 100 µM (inactive),> 100 µM (inactive),,> 100 µM (inactive)
COc1cc2c(oc(=O)c3c4oc([Si](C)(C)C)cc4cc(OC)c23)c2cccc(OCc3ccccc3)c12,> 64.3 µM (inactive),26.3 µM (inactive),43.3 µM (inactive),26.5 µM (inactive),34.8 µM (inactive),36.4 µM (inactive),48.9 µM (inactive),20.7 µM (inactive),> 63.7 µM (inactive),,53.7 µM (inactive),19.7 µM (inactive),38 µM (inactive),44 µM (inactive),18.8 µM (inactive),21.4 µM (inactive),33.7 µM (inactive)
COC(=O)CCC(=O)N1Cc2cc(C)ccc2N(C(=O)CCC(=O)OC)Cc2cc(C)ccc21,,> 100 µM (inactive),> 100 µM (inactive),> 100 µM (inactive),> 100 µM (inactive),> 100 µM (inactive),> 100 µM (inactive),> 100 µM (inactive),> 100 µM (inactive),> 100 µM (inactive),> 100 µM (inactive),,> 100 µM (inactive),> 100 µM (inactive),> 100 µM (inactive),> 100 µM (inactive),> 100 µM (inactive)
